Drawing on patent publication US10683293B2, “Optionally fused heterocyclyl-substituted derivatives of pyrimidine useful for the treatment of inflammatory, metabolic, oncologic and autoimmune diseases” (NUEVOLUTION A/S, priority 2014, dated 2020), this text covers IC50 for 22 molecules.

Molecules are shown by their SMILES.

In this test the target is T1, human RORγt (Ligand Binding Domain) (Homo sapiens, UniProt P51449).
T1 construct: purchased Crelux (Planegg, Germany) batch no PC5032-1
T1 sequence (P51449 269-508 limits assumed): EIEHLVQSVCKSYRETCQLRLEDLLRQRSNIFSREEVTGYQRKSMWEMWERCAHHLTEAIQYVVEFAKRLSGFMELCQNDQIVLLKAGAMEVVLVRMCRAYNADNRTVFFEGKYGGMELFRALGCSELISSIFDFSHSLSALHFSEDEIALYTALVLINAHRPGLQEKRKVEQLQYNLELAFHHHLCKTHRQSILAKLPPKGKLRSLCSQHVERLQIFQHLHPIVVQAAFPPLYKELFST
Put plainly: Fluorescence Polarization (FP) Assay. As to conditions: 100 nM human RORγt LBD, 25 nM TAMRA probe, values are activity range bounds. How it is done: The activity of the compounds was evaluated using a Fluorescence Polarization (FP) Assay and, RORγ Reporter assay (also referred to as Gal4 assay). The FP assay is an in vitro assay monitoring binding within the ligand binding pocket. The RORγ and the Th17 assays (another suitable assay) are both cell-based assays monitoring functional activity of the compound assayed.
Fluorescence Polarization (FP) Assay
The total volume was 25 μl, in a black Perkin Elmer OptiPlate. As negative control, 1 μl DMSO was used. […] The probe is a fluorescently labeled (TAMRA) RORγt ligand identified by Nuevolution with a total molecular weight of 910 g/mole as shown in Graph A in FIG. 1.
For the molecule `OCCC1(CNc2ncnc(N(Cc3ccc(C(F)(F)F)cc3)C3CC3)c2F)CCOCC1` [Example A22, 2-[4-[[[6-[cyclopropyl-[[4-(trifluoromethyl)phenyl]methyl]amino]-5-fluoro-pyrimidin-4-yl]amino]methyl]tetrahydropyran-4-yl]ethanol], the IC50 (commonly the concentration that inhibits the measured activity by half) is below 500 nM.
`O=C(O)C(CNc1ncnc(N(Cc2ccc(C(F)(F)F)cc2)C2CC2)c1F)CC1CCOCC1` (stereo not shown) [Example A185, 2-[[[6-[cyclopropyl-[[4-(trifluoromethyl)phenyl]methyl]amino]-5-fluoro-pyrimidin-4-yl]amino]methyl]-3-tetrahydropyran-4-yl-propanoic acid]: the IC50 is below 10000 nM.
`OC1(CNc2ncnc(N(Cc3ccc(C(F)(F)F)cc3)C3CC3)c2F)CCSCC1` [Example A30, 4-[[[6-[cyclopropyl-[[4-(trifluoromethyl)phenyl]methyl]amino]-5-fluoro-pyrimidin-4-yl]amino]methyl]tetrahydrothiopyran-4-ol] showed an IC50 below 500 nM.
`CN(Cc1cccc(C(F)(F)F)c1)c1ncnc(NCc2ccc(CC(N)=O)cc2)c1F` [Example A129, 2-[4-[[[5-fluoro-6-[methyl-[[3-(trifluoromethyl)phenyl]methyl]amino]pyrimidin-4-yl]amino]methyl]phenyl]acetamide] had an IC50 below 500 nM.
`NC(=O)Cc1ccc(CNc2ncnc(N(Cc3ccc(C(F)(F)F)cn3)C3CC3)c2F)cn1` [Example A113, 2-[5-[[[6-[cyclopropyl-[[5-(trifluoromethyl)-2-pyridyl]methyl]amino]-5-fluoro-pyrimidin-4-yl]amino]methyl]-2-pyridyl]acetamide]: the IC50 is below 10000 nM.
`O=C(O)CCNC(=O)CC1(CNc2ncnc(N(Cc3ccc(C(F)(F)F)cc3)C3CC3)c2F)CCOCC1` [Example A155, 3-[[2-[4-[[[6-[cyclopropyl-[[4-(trifluoromethyl)phenyl]methyl]amino]-5-fluoro-pyrimidin-4-yl]amino]methyl]tetrahydropyran-4-yl]acetyl]amino]propanoic acid] displayed an IC50 below 1000 nM.
`CS(=O)(=O)N1CC(CNc2ncnc(N(Cc3ccc(C(F)(F)F)cc3)C3CC3)c2F)C1` [Example A160, N4-cyclopropyl-5-fluoro-N6-[(1-methylsulfonylazetidin-3-yl)methyl]-N4-[[4-(trifluoromethyl)phenyl]methyl] pyrimidine-4,6-diamine]: the IC50 is below 500 nM.
Molecule `CN(Cc1ccc(-n2cccn2)cc1)c1ncnc(NCc2ccc(S(=O)(=O)O)cc2)c1F` [Example A137, 4-[[[5-fluoro-6-[methyl-[(4-pyrazol-1-ylphenyl)methyl]amino]pyrimidin-4-yl]amino]methyl]benzenesulfonic acid] showed an IC50 below 500 nM.
As for `O=S1(=O)CCC(CNc2ncnc(N(Cc3ccc(C(F)(F)F)cc3)C3CC3)c2F)CC1` [Example A34, N6-cyclopropyl-N4-[(1,1-dioxothian-4-yl)methyl]-5-fluoro-N6-[[4-(trifluoromethyl)phenyl]methyl] pyrimidine-4,6-diamine], the figure is below 500 nM.
`NC(=O)Cc1ccc(CNc2ncnc(N(Cc3ccc4c(c3)OCC(=O)N4)C3CC3)c2F)cc1` [Example A162, 2-[4-[[[6-[cyclopropyl-[(3-oxo-4H-1,4-benzoxazin-7-yl)methyl]amino]-5-fluoro-pyrimidin-4-yl]amino]methyl]phenyl]acetamide] gave an IC50 below 500 nM.
For `O=C(O)CC1(Nc2ncnc(N(Cc3ccc(C(F)(F)F)cc3)C3CC3)c2F)CCOCC1` [Example A183, 2-[4-[[6-[cyclopropyl-[[4-(trifluoromethyl)phenyl]methyl]amino]-5-fluoro-pyrimidin-4-yl]amino]tetrahydropyran-4-yl]acetic acid], the IC50 is below 2000 nM.
Then `Cc1cc(CN(c2ncnc(NCC3CCN(S(C)(=O)=O)CC3)c2F)C2CCCCC2)n(C)n1` [Example A180, N6-cyclohexyl-N6-[(2,5-dimethylpyrazol-3-yl)methyl]-5-fluoro-N4-[(1-methylsulfonyl-4-piperidyl)methyl]pyrimidine-4,6-diamine], with below 10000 nM; and `COC1CCCCC1CNc1ncnc(N(Cc2ccc(C(F)(F)F)cc2)C2CC2)c1F` (stereo not shown) [Example A43, N4-cyclopropyl-5-fluoro-N6-[(2-methoxycyclohexyl)methyl]-N4-[[4-(trifluoromethyl)phenyl]methyl] pyrimidine-4,6-diamine], with below 1000 nM; and `O=S(=O)(Nc1ccc(CNc2ncnc(N(Cc3ccc(C(F)(F)F)cn3)C3CC3)c2F)cc1)C(F)F` [Example A106, N-[4-[[[6-[cyclopropyl-[[5-(trifluoromethyl)-2-pyridyl]methyl]amino]-5-fluoro-pyrimidin-4-yl]amino]methyl]phenyl]-1,1-difluoro-methanesulfonamide], with below 10000 nM.
Then `N#Cc1cccc(CN(c2ncnc(NCc3ccc(CC(N)=O)cc3)c2F)C2CC2)c1` [Example A163, 2-[4-[[[6-[(3-cyanophenyl)methyl-cyclopropyl-amino]-5-fluoro-pyrimidin-4-yl]amino]methyl]phenyl]acetamide], with below 500 nM; and `CN(C)C(=O)C1(CNc2ncnc(N(Cc3ccc(C(F)(F)F)cc3)C3CC3)c2F)CCCC1` [Example A27, 1-[[[6-[cyclopropyl-[[4-(trifluoromethyl)phenyl]methyl]amino]-5-fluoro-pyrimidin-4-yl]amino]methyl]-N,N-dimethyl-cyclopentanecarboxamide], with below 1000 nM.
On to `NC(=O)Cc1ccc(CNc2ncnc(N(Cc3cccc(-c4cccnc4)c3)C3CC3)c2F)cc1` [Example A130, 2-[4-[[[6-[cyclopropyl-[[3-(3-pyridyl)phenyl]methyl]amino]-5-fluoro-pyrimidin-4-yl]amino]methyl]phenyl]acetamide], for which the IC50 is below 500 nM.
The molecule `Cc1ccc(CNc2ncnc(N(Cc3ccc(C(F)(F)F)cc3)C3CC3)c2F)nn1` [Example A157, N4-cyclopropyl-5-fluoro-N6-[(6-methylpyridazin-3-yl)methyl]-N4-[[4-(trifluoromethyl)phenyl]methyl] pyrimidine-4,6-diamine] displayed an IC50 below 500 nM.
`O=C(O)CNC(=O)CC1(CNc2ncnc(N(Cc3ccc(C(F)(F)F)cc3)C3CC3)c2F)CCOCC1` [Example A154, 2-[[2-[4-[[[6-[cyclopropyl-[[4-(trifluoromethyl)phenyl]methyl]amino]-5-fluoro-pyrimidin-4-yl]amino]methyl]tetrahydropyran-4-yl]acetyl]amino]acetic acid] gave an IC50 below 2000 nM.
On to `O=C(O)CC1CC(CNc2ncnc(N(Cc3ccc(C(F)(F)F)cc3)C3CC3)c2F)C1` (stereo not shown) [Example A92, 2-[3-[[[6-[cyclopropyl-[[4-(trifluoromethyl)phenyl]methyl]amino]-5-fluoro-pyrimidin-4-yl]amino]methyl]cyclobutyl]acetic acid], for which the IC50 is below 10000 nM.
`O=C(O)CC1(CNc2ncnc(N(Cc3ccc(C(F)(F)F)cc3)C3CC3)c2F)CCS(=O)(=O)CC1` [Example A72, 2-[4-[[[6-[cyclopropyl-[[4-(trifluoromethyl)phenyl]methyl]amino]-5-fluoro-pyrimidin-4-yl]amino]methyl]-1,1-dioxo-thian-4-yl]acetic acid] showed an IC50 below 10000 nM.
`CN(Cc1cccc2ccccc12)c1ncnc(NCc2ccc(CC(N)=O)cc2)c1F` [Example A118, 2-[4-[[[5-fluoro-6-[methyl(1-naphthylmethyl)amino]pyrimidin-4-yl]amino]methyl]phenyl]acetamide] yielded an IC50 below 500 nM.
